Source: patent US20250281474A1, “PHARMACEUTICAL COMPOSITION FOR TREATING COGNITIVE DECLINE OR FOR TREATING OVERWEIGHTNESS OR OBESITY” (University of the Ryukyus, priority 2021, published 2025)

Assays:
CP-AMPAR = experiment: Ca2+ imaging of hippocampal brain slices, AMPA+CTZ application, ob/ob mice; assay type: cell-based, mouse
[1] = tested on: calcium-permeable AMPA receptor; experiment: Ca2+ imaging of hippocampal slices of Alzheimer's disease model mice (NL, NLGF); assay type: cell-based, mouse; settings: Alzheimer's disease model (NL and NLGF) mice fed CD
[2] = Body weight monitoring of HFD-fed mice; assay type: in vivo, mouse
Procedure: Male C57BL/6J background and ob/ob mice were obtained from CLEA Japan Inc. and Japan SLC, respectively (3). The reason why male mice were selected is that it has been reported that male mice are susceptible to HFD, such as weight gain, metabolic changes, and disorder of learning and hippocampal synaptic plasticity. These animals were housed 3 to 4 per cage in a standard 12 hour dark-light cycle room at 25° C. in an environment with freely available food and water. All animal experiments were performed in accordance with the guidelines of the Animal Experiment Ethics Committee of the University of the Ryukyus. Time series changes in average food intake and average body weight were monitored in each condition.
Post-weaning (6 weeks) food intake and body weight of mice maintained on control diet (CD), high-fat diet (HFD), or HFD containing PER (Fycompa (trademark), Eisai, Japan) (5 mg/kg/day) was monitored up to 18 w (FIGS. 2, E and F). […]
Mice were then split into an HFD-fed group (n=5) and a PER-containing HFD-fed group (n=5) under the condition of the same feeding amount (refer to lower Panel of FIG. 25) and their body weights monitored.

HFD-fed mice = experiment: MRI volumetric analysis of mouse hippocampus; assay type: in vivo; settings: HFD-fed mice n=8 treated with PER; left CA1 and DG, right CA1, CA3 and DG
Text: Anatomical brain images of 8 ex vivo mice with CD, HFD, PER treatment were acquired using a Bruker BioSpec 117/11 11.75 Tesla MRI scanner (Bruker BioSpin GmbH, Ettlingen, Germany). MPRAGE (three-dimensional (3D)-prepared rapid gradient-echo) sequences were acquired as high resolution 100 μm iso-voxel images for voxel-based morphometry (matrix size: 280×220×220; field of view: 28×22×22 mm, repetition time: 2000 ms, echo time: 1.78 ms, flip angle: 12 degrees, inversion time: 800 ms, echo train length: 13, average number of times: 2).
A region of interest was drawn in the acquired data image using a rapid acquisition protocol by relaxation enhancement (RARE) sequence (matrix size: 280×220×220, field of view: 28×22×22 mm; repeat time: 1500 ms; echo time: 25 ms; flip angle: 180°). The MPRAGE image and the RARE image were simultaneously acquired by one single scan.
MRI data acquisition of ex vivo mice was acquired by simultaneously placing the head parts of four mice fixed with PBS into an MRI coil. Brains of four mice were confirmed using raw MRI data. […]
The volume of subfields of the hippocampus (CA1, CA2, CA3, DG, EC) was calculated using the ROI file (31, 33, 51, 52). […]

[3] = Appearance and body weight of ob/ob mice; assay type: in vivo, mouse; settings: ob/ob mice fed perampanel-containing diet 5 mg/kg body weight from 8 to 12 weeks of age
Procedure: ob/ob mice and their littermates with wild-type traits were obtained as the offspring of ob+/− mice. These mice were fed freely and some of the ob/ob mice were fed perampanel-containing diet at 5 mg/kg body weight from 8 to 12 weeks of age. The appearance and body weight of these mice were compared at 12 weeks of age.

[4] = tested on: neurospheres established from NL-G-F(−/−) mice; experiment: Neurosphere culture from NL-G-F(-/-) mouse hippocampus: Aβ42/Aβ40 EIA and Aβ staining; assay type: cell-based
Text: Biomarkers of Alzheimer's dementia include the Aβ42/Aβ40 ratio of cerebrospinal fluid (CSF) and plasma levels, phosphorylated tau (P-tau) in threonines 181 and 217, and neurofilament lite (NfL) (Curr Opin Neurol 2021 1 266-274). The Aβ42/Aβ40 ratio is considered to be able to predict Aβ accumulation in PET (Doecke J D et al., Neurology 2020). Hippocampus on 17 to 19 days of NL-G-F(−/−) mouse embryonic life was taken out and cultured by a Neurosphere method by Brewer G J et al. (Nat Protoc 2007 2, 1490-1498), and a supernatant was measured by an EIA method using this culture system. The change in the Aβ42/Aβ40 ratio by the perampanel (50 μM/methyl cellulose 4 μL) was analyzed. In 4 μL of a 0.5 w/v % aqueous solution of methyl cellulose 400, 5×10^4 spheres smaller than 50 μm in diameter were cultured in 50 ml Falcon Flask coated with poly-D-lysine/laminin, and Aβ42 and Aβ40 of the supernatant were measured by EIA method on the second day (FIG. 29A) and the fourth day (FIG. 29B) of culture. The solvent was administered 12 hours after seeding.

For `N#Cc1ccccc1-c1cc(-c2ccccn2)cn(-c2ccccc2)c1=O` [PER, 3-(2-cyanophenyl)-5-(2-pyridyl)-1-phenyl-1,2-dihydropyridine-2-one], the “inhibitory effect on CP-AMPAR in EC, CA1, CA2, CA3, DG” value (CP-AMPAR; ob/ob mice slices, 100 μM, p<0.05 (FIG. 10-1A)) was “significant inhibitory effect”, the “Ca2+ permeability via CP-AMPAR in all hippocampal subregions” value (CP-AMPAR; ob/ob mice, PER administration, p<0.05) was “significant inactivation” and the “inhibition of NMDAR by the calcium-permeable AMPA receptor” value [1] was “can be eliminated”. For the same compound, the “body weight of HFD-fed mice” value ([2]; HFD containing PER 5 mg/kg/day from 6 weeks, effect started from 16 w compared to HFD) was “significant inhibition”, the “body weight under the condition of the same feeding amount” value ([2]; PER-containing HFD-fed group n=5 vs HFD-fed group n=5) was “significant body weight loss” and the “hippocampal volume (printed brain weight) by volumetric analysis” value (HFD-fed mice) was “significantly restored”. The “overweight / appearance at 12 weeks of age” value [3] was “overweight was prevented”, the “Aβ staining of the culture” value ([4]; fourth day of culture, formic acid treatment) was “decrease in Aβ” and the “Aβ42/Aβ40 ratio of the culture supernatant (EIA)” value ([4]; perampanel 50 μM/methyl cellulose 4 μL, second and fourth day of culture) was “significantly increased”.
